Columns and labels:
[1] = Photochemical stability of aqueous solutions under ambient light exposure; assay type: physicochemical
Method: The observation that, after a 12 month period, in the presence of a cationic surfactant no precipitation and no formation of metallic Silver occur, confirms the relevant role of the cationic surfactants in determining the stabilization in solution of the neutral complex and the role of the ligand L in stabilizing photochemically the Ag^+ ion.
(§1) The neutral complex Ag-L with L = 4-mercaptophenilboronic acid was prepared by adding stoichiometric amounts of 4-mercaptophenylboronic acid to an aqueous solution of a silver salt, such as silver nitrate. […] The aqueous solution of the complex was stabilized by addition of Benzalkonium chloride up to reach a concentration of about 2 x 10^-2 M, which corresponds to the double of its critical micelle concentration.

Solubility in water = assay type: physicochemical; conditions: without surfactant
Method: The complex of formula Ag-L can be prepared by adding stoichiometric amounts of 4-mercaptophenylboronic acid to an aqueous solution of a silver salt, such as silver nitrate. […] This complex can be solubilized in aqueous solution by addition of a cationic surfactant.
as §1

[2] = tested on: Staphylococcus aureus (ATCC- 6538), Pseudomonas aeruginosa (ATCC - 15442); test: Quantitative suspension test for bactericidal activity (UNI EN 1272:2009); assay type: cell-based
Method: The bactericidal activity was tested on freshly prepared aqueous solutions of the neutral Ag-L complex where the ligand L coordinated to the silver ion is 4-mercaptophenilboronic acid .
Additional tests were carried out on aqueous solutions containing the neutral Silver Ag-L complex and different cationic surfactants and, for purpose of comparison, on aqueous solutions containing only the cationic surfactants at the same concentration levels. It is in fact known that the cationic surfactants used for the purposes of the invention are endowed with antimicrobic activity on their own.
The bactericidal activity tests were carried out according to UNI EN 1272:2009 and UNI EN 13697:2001 standards, which make reference to chemical disinfectants and antiseptics, by using the following test organism: Staphylococcus aureus (ATCC- 6538), as representative of Gram-positive bacteria and Pseudomonas aeruginosa (ATCC - 15442), as representative of Gram-negative bacteria.
On such solutions it was in fact observed a maximum reduction of the bacterial count of ca 6-7 log.

[3] = treating burns; decreased from 60%; cited from earlier work
[4] = tested on: Staphylococcus epidermidis; conditions: cited from earlier work

Compound: OB(O)c1ccc([S][Ag])cc1 [AgL]
- change in color or composition ([1]; aqueous solution stabilized with Benzalkonium chloride about 2 x 10^-2 M, 12 months ambient light exposure): did not show any change in color or composition
- solubility in water (Solubility in water): only partly soluble in water
- log reduction at 330 µM ([2]; Staphylococcus aureus, 0.5 h, concentration of the order of 3.3 x 10^-4 M in water, 30 min of contact, read-out: log reduction of bacterial count): 2 to 3

Compound: O=[N+]([O-])[O-].[Ag+] [Silver Nitrate, silver nitrate]
- formation of Ag° precipitate ([1]; aqueous solution, comparable conditions (ambient light exposure)): formation of a black Ag° precipitate after few minutes
- log reduction of bacterial count ([2]; concentration of the order of 3.3 x 10^-4 M in water, 30 min of contact): 2-3 log
- antimicrobial activity after exposure to ambient light ([2]; solution of concentration comparable to 3.3 x 10^-4 M): lose the antimicrobial activity after exposure to ambient light
- number of deaths that were a result of sepsis [3]: 28%

Compound: [H]/N=C(\N/C(=N/[H])NCCCCCCNC(=N)NC(=N)Nc1ccc(Cl)cc1)Nc1ccc(Cl)cc1 [chlorhexidine]
- development of resistance [4]: no evidence of resistance
